From patent US20100261774A1, “Methods for the modulation of Leishmania major infection in mammals” (Children's Hospital Medical Center, priority 2009, published 2010) come the findings set out here.

The test system of assay [1] is visceral leishmaniasis. Put plainly: Treatment of visceral leishmaniasis in patients with oral 1-MT. In kind it is in vivo. From the text: Patients present with symptoms of fever and organomegaly of long standing that is unresponsive to standard treatment, possibly with attendant anemia and pancytopenia, with a history of travel in an area in which leishmaniasis is known to be endemic. Laboratory tests confirm a diagnosis of visceral […]. […] Patients present with symptoms of fever and organomegaly of long standing that is unresponsive to standard treatment, possibly with attendant anemia and pancytopenia, with a history of travel in an area in which leishmaniasis is known to be endemic. Laboratory tests confirm a diagnosis of visceral leishmaniasis. […] Patients present with symptoms of fever and organomegaly of long standing that is unresponsive to standard treatment, possibly with attendant anemia and pancytopenia, with a history of travel in an area in which leishmaniasis is known to be endemic. Laboratory tests confirm a diagnosis of visceral leishmaniasis.

Assay [2] deals with T. gondii (ME49 strain).
Text: (B) Parasite burden. […] (C) Serum IFN-γ. (D) Serum TNF-α. (E) Serum IL-10. Systemic cytokine production was quantified by the CCA assay 30 d after infection. […] Values shown are means±SE of 8 mice/group. (F) Kinetic analysis of parasite burden in the experiment depicted in FIG. 1A. […] (G) IL-12/23p40 mRNA. (H) IFN-γ mRNA. (I) TNF-α mRNA. (J) IL-10 mRNA. Cytokine mRNA was quantified in brain by qRT-PCR 30 d after infection.
To evaluate parasite load, infected animals were killed and the number of T. gondii cysts present in brain homogenates from these animals were counted.
The test system of assay [3] is T. gondii. Conditions: mouse, in vivo.
The subject of assay [4] is Leishmania major clone V1 (MHOM/IL/80/Friedlin).
Experimental: (B) Parasite burden. Quantification of parasite outgrowth from titrations of ear tissue lysates was performed at the indicated times. Values shown are means+SE of 6 mice/group. […] The effect of IDO inhibition during cutaneous leishmaniasis on antigen-specific cytokine production. […] (F) IL-10. Cytokines were quantified by ELISA in the supernatants of soluble L. major antigen-stimulated cells isolated from draining lymph nodes 4 wk after infection. Values shown are means+SE of 6 mice/group. *P<0.05.
Lesion size was quantified with a vernier caliper. Parasite burden was quantified by determining the highest dilution of ear tissue lysates in which promastigote outgrowth could be detected out after 7 days of incubation. […] Cells isolated from lymph nodes draining lesions were incubated with L major promastigote lysates.
Cytokines were quantified by ELISA in culture supernatants harvested 48 h later.
Setting [5] is: L. major antigen-stimulated, ELISA, 4 wk after infection, vs untreated.
Where [6] appears, read: early phase of parasite clearance (4 wk after infection), CCA assay.

Like-named read-outs stand apart in the source and are kept apart here.

As usually defined, the mortality is the share of the test organisms that died. Low readings indicate more survivors, high ones fewer survivors.

In the case of `Cn1cc(C[C@H](N)C(=O)O)c2ccccc21` [1-MT, 1-methyl tryptophan], the “amelioration of symptoms of visceral leishmaniasis” value in assay [1] (oral 1-MT 12.5-75 mg/kg/day with a drug such as amphotericin at less than usual doses, Example 4) is recorded as “equivalent to that achieved with standard drug therapy alone”. The “amelioration of symptoms of visceral leishmaniasis” value in assay [1] (oral 1-MT 12.5-75 mg/kg/day with a drug such as amphotericin at normal doses, Example 3) was “more rapid than that observed with standard drug therapy alone”. The “symptoms of visceral leishmaniasis” value in assay [1] (oral 1-MT approximately 12.5-75 mg/kg/day alone, Example 2) was “Amelioration of symptoms is observed”. For the same compound, the “serum levels of IFN-γ, TNF-α and IL-10” value in assay [2] (CCA assay, 30 d after infection, vs control) was “No significant alteration”. In assay [2] (T. gondii-infected mice given 1-MT, FIG. 1A), the mortality worked out at 100%. Also, in assay [2] (qRT-PCR in brain, 30 d after infection, vs control), the “mRNA expression of IL-12/23p40, IFN-γ, TNF-α and IL-10 in the central nervous system” value was “lack of biologically important changes”. In assay [2] (second independent experiment, not pictured, 1-MT vs control), this compound registered a mortality of 100%. Also, in assay [3], the “disease course and mortality” value was “reactivation of disease and increased mortality”; the “local and systemic production of inflammatory mediators” value is on record as “relatively little differences”. The “serum levels of IL-4” value in assay [4] (1-MT treated vs untreated infected mice, data not shown) is given as “no differences”. In assay [4] (setting [5]), the “IFN-γ protein produced by cells from draining lymph nodes” value is “Relatively more” and the “IL-10 produced by T cells from draining lymph nodes” value is recorded as “relatively less”. Besides, in assay [4] (setting [6]), the “serum IFN-γ” value is “significantly increased” and the “serum IL-10 concentrations” value is “decreased”. Also, the lesional size result in assay [4] (first weeks after infection while lesion size increasing, vs untreated) was “No overt differences”. For the same compound, the lesional size result in assay [4] (post apex period, weeks 4-12 post infection, vs untreated) is reported as “significantly smaller”. Also, the parasite burden entry in assay [4] (weeks 4 through 12 post infection, vs controls, FIG. 4B) was “significantly lower”.
